Assay results: article PMC12169614, “Exploring Long Arm Amide-Linked Side Chains in the Design of Antifungal Azole Inhibitors of Sterol 14α-Demethylase (CYP51)” (Journal of Medicinal Chemistry, 2025)

Experiments:
[1] = tested on: Y2411 Endog. ScCYP51; experiment: MIC80 determination, strain Y2411; type: cell-based, S. cerevisiae; settings: Saccharomyces cerevisiae
Method: (§1) Cells were seeded at an OD600 nm of 0.005 (1.5 × 10^4 CFU), and the plates were incubated at 30 °C with shaking at 200 rpm for 48 h for S. cerevisiae strains and 24 h for C. albicans . Cell growth was assessed by measuring the OD600 nm using a Synergy 2 multimode plate reader (BioTek Instruments, VT, USA). Each MIC80 was determined using triplicate measurements for pools of 4 clones of each strain in three separate experiments.

[2] = tested on: Y2300 OE ScCYP51; experiment: MIC80 determination, strain Y2300; type: cell-based, S. cerevisiae; settings: Saccharomyces cerevisiae
Method: as §1

[3] = tested on: Y2301 OE ScCYP51 Y140F; experiment: MIC80 determination, strain Y2301; type: cell-based, S. cerevisiae; settings: Saccharomyces cerevisiae
Method: as §1

[4] = tested on: Y2513 OE ScCYP51 Y140H; experiment: MIC80 determination, strain Y2513; type: cell-based, S. cerevisiae; settings: Saccharomyces cerevisiae
Method: as §1

[5] = tested on: Y2459 OE CaCYP51 CaCpr; experiment: MIC80 determination, strain Y2459; type: cell-based, S. cerevisiae
Method: as §1

[6] = tested on: Y525 OE CaMDR1a; experiment: MIC80 determination, strain Y525; type: cell-based, S. cerevisiae
Method: as §1

[7] = tested on: Y570 OE CaCDR1B; experiment: MIC80 determination, strain Y570; type: cell-based, S. cerevisiae
Method: as §1

[8] = tested on: Y71 SC5314; experiment: MIC80 determination, C. albicans clinical isolate Y71 SC5314; type: cell-based; settings: Candida albicans
Method: as §1

[9] = tested on: Y1; experiment: MIC80 determination, C. albicans clinical isolate Y1; type: cell-based; settings: Candida albicans, pH 7, 24 h
Method: as §1

[10] = tested on: Y610 FHB1; experiment: MIC80 determination, C. albicans clinical isolate Y610 FHB1; type: cell-based; settings: Candida albicans; C. albicans clinical isolate Y610 FHB1 (weakly expresses CaCDR1); pH 7, 24 h
Method: as §1

[11] = tested on: Y611 FHB3; experiment: MIC80 determination, C. albicans clinical isolate Y611 FHB3; type: cell-based; settings: Candida albicans, 24 h, pH 7
Method: as §1

[12] = tested on: Y2721 OE CpCYP51; experiment: MIC80 determination, strain Y2721; type: cell-based, S. cerevisiae
Method: as §1

[13] = tested on: Y2716 OE CpCYP51 Y132F; experiment: MIC80 determination, strain Y2716; type: cell-based, S. cerevisiae
Method: as §1

[14] = tested on: Y2374 OE CgCYP51; experiment: MIC80 determination, strain Y2374; type: cell-based, S. cerevisiae; settings: Saccharomyces cerevisiae
Method: as §1

[15] = tested on: Y433 OE CgCDR1; experiment: MIC80 determination, strain Y433; type: cell-based, S. cerevisiae; settings: Saccharomyces cerevisiae
Method: as §1

[16] = tested on: 2711 CnCYP51 OE CnCPR; experiment: MIC80 determination, strain 2711; type: cell-based, S. cerevisiae
Method: as §1

[17] = tested on: Y2649 OE CYP51 F1 RaCPR; experiment: MIC80 determination, strain Y2649; type: cell-based, S. cerevisiae
Method: as §1

[18] = tested on: Y2651 OE CYP51 F5 RaCPR; experiment: MIC80 determination, strain Y2651; type: cell-based, S. cerevisiae; settings: Saccharomyces cerevisiae
Method: as §1

[19] = tested on: Y2746 OE AfCYP51A AfCPR AfERG6; experiment: MIC80 determination, strain Y2746; type: cell-based, S. cerevisiae; settings: Saccharomyces cerevisiae
Method: as §1

[20] = tested on: Y2747 OE AfCYP51B AfCPR AfERG6; experiment: MIC80 determination, strain Y2747; type: cell-based, S. cerevisiae
Method: as §1

[21] = tested on: Y2301 ScCYP51 Y140F mutant; experiment: Agarose (disk) diffusion assay, strain Y2301; type: cell-based, S. cerevisiae; settings: 10 nmol/disk, 30 °C, 48 h
Source text: (§2) Final compounds were screened as racemic mixtures using agarose diffusion assays to visualize their inhibitory activity against a panel of recombinant S. cerevisiae strains i.e., S. cerevisiae strains expressing control levels of wild-type CYP51 (ScCYP51), overexpressed wild-type ScCYP51, overexpressed azole-resistant ScCYP51 Y140F/H mutations and overexpressed C. albicans efflux pumps MDR1a or CDR1B (Figure and Table S1).
(§3) The susceptibilities of S. cerevisiae and Candida species strains to azole compounds were observed as zones of growth inhibition in agarose diffusion assays. The disk diffusion assays were carried out as described by Keniya et al. Complete supplement mixture (CSM) agarose (0.6% agarose [wt/vol]; 20 mL of synthetic defined medium (SD); pH 6.8–7) was solidified in a rectangular Petri dish which was overlaid with CSM agarose (0.6% [wt/vol]; 5 mL; pH 6.8–7) seeded with yeast cells at an optical density (OD600) of 0.008 (118,000 cells per 1 mL of overlay). Azole compounds (10 nmol/disk) were applied to sterile BBL paper disks (Becton Dickinson Co., Sparks, MD) and placed on solidified overlays. Cell growth was assessed after incubation at 30 °C for 48 h.

[22] = tested on: Y2513 ScCYP51 Y140H mutant; experiment: Agarose (disk) diffusion assay, strain Y2513; type: cell-based, S. cerevisiae; settings: 10 nmol/disk, 30 °C, 48 h
Source text: as §2, §3

[23] = tested on: Y525 MFS efflux pump CaMDR1a overexpressed; experiment: Agarose (disk) diffusion assay, strain Y525; type: cell-based, S. cerevisiae; settings: 10 nmol/disk, 30 °C, 48 h
Source text: as §2, §3

[24] = tested on: Y570 ABC efflux pump CaCDR1B overexpressed; experiment: Agarose (disk) diffusion assay, strain Y570; type: cell-based, S. cerevisiae; settings: 10 nmol/disk, 30 °C, 48 h
Source text: as §2, §3

[25] = tested on: Y2411 azole sensitive control strain; experiment: Agarose (disk) diffusion assay, strain Y2411; type: cell-based, S. cerevisiae; settings: 10 nmol/disk, 30 °C, 48 h
Source text: as §2, §3

[26] = tested on: Y2300 ScCYP51 overexpressed; experiment: Agarose (disk) diffusion assay, strain Y2300; type: cell-based, S. cerevisiae; settings: 10 nmol/disk, 30 °C, 48 h
Source text: as §2, §3

[27] = biological target: wild-type CaCYP51 (Candida albicans, UniProt P10613); experiment: Reconstituted CYP51 activity assay, wild type; type: biochemical, C. albicans; settings: 1 μM CaCyp51, 50 μM lanosterol; duplicate, mean ± SD
wild-type CaCYP51, sequence (P10613 whole entry): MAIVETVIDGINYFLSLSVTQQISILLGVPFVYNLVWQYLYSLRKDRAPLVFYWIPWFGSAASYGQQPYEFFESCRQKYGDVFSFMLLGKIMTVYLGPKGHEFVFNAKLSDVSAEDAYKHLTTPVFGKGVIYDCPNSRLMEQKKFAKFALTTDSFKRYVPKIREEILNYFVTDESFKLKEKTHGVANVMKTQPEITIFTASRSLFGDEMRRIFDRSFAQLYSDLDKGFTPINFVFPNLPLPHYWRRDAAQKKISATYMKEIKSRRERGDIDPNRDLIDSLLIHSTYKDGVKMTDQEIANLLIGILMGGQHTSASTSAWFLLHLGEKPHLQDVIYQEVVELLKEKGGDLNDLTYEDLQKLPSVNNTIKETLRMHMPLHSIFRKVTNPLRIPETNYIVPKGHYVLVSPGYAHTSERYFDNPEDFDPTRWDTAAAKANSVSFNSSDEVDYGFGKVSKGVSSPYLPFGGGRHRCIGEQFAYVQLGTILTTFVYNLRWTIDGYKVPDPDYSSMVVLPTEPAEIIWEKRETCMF
Method: (§4) The reconstituted CYP51 assay previously described contained 1 μM CaCyp51, 2 μM Homo sapiens cytochrome P450 reductase and 50 μM lanosterol in a final volume of 500 μL. After the addition of azole in DMSO (2.5 μL), reactions were incubated at 37 °C for 10 min prior to initiation by the addition of 100 μL 20 mM β-NADPH-Na4. Sterol substrates and products were extracted with ethyl acetate, derivatized with N,O-bis(trimethylsilyl)-trifluoroacetamide (BSTFA)–trimethylchlorosilane (TMCS) (99:1) in the presence of anhydrous pyridine, and analyzed by GC/MS as described previously. IC50 determinations were performed in duplicate. Nonlinear regression of inhibitor concentration vs normalized response was calculated by GraphPad Prism 10.4.0 for Windows (GraphPad Software, Boston, Massachusetts, USA, www.graphpad.com).

[28] = biological target: CaCYP51 Y132H + K143R (Candida albicans, UniProt P10613, K143R/Y132H); experiment: Reconstituted CYP51 activity assay, Y132H + K143R; type: biochemical, C. albicans; settings: 1 μM CaCyp51, 50 μM lanosterol; duplicate, mean ± SD
CaCYP51 Y132H + K143R, sequence (P10613 whole entry Y132H/K143R): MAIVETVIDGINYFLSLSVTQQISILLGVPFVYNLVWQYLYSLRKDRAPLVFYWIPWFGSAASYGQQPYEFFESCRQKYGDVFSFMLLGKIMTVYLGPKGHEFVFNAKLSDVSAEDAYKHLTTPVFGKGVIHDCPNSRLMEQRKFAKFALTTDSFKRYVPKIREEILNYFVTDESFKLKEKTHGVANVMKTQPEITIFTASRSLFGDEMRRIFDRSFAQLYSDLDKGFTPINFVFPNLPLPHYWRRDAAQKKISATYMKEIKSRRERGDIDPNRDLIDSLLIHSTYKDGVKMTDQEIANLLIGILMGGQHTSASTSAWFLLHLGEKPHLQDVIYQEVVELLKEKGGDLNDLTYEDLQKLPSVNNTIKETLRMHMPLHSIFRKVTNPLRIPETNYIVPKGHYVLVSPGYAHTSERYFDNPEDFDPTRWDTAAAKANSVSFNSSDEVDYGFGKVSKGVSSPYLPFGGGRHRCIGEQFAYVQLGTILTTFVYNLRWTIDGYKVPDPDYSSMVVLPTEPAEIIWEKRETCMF
Method: as §4

[29] = biological target: CaCYP51 Y132F (Candida albicans, UniProt P10613, Y132F); settings: footnote b; ref number not given; cited from earlier work
CaCYP51 Y132F, sequence (P10613 whole entry Y132F): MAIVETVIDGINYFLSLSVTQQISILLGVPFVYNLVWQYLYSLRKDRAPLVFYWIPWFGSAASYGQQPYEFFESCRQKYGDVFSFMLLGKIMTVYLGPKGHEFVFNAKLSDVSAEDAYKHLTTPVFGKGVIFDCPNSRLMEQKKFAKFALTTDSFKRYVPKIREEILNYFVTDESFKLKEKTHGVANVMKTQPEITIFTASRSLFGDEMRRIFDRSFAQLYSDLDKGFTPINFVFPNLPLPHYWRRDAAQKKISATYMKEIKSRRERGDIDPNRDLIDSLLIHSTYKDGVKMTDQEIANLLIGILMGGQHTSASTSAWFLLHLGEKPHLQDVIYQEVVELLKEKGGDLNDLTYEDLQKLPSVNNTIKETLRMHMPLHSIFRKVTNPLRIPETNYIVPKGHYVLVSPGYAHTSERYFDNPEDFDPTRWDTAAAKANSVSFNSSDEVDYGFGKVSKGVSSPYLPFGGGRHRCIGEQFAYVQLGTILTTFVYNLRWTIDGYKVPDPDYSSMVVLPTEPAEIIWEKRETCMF

[30] = biological target: CYP3A4 (Homo sapiens, UniProt P08684); design: method as in numbers not given; settings: literature values for azole antifungals; ref numbers not given; cited from earlier work
CYP3A4, sequence (P08684 whole entry): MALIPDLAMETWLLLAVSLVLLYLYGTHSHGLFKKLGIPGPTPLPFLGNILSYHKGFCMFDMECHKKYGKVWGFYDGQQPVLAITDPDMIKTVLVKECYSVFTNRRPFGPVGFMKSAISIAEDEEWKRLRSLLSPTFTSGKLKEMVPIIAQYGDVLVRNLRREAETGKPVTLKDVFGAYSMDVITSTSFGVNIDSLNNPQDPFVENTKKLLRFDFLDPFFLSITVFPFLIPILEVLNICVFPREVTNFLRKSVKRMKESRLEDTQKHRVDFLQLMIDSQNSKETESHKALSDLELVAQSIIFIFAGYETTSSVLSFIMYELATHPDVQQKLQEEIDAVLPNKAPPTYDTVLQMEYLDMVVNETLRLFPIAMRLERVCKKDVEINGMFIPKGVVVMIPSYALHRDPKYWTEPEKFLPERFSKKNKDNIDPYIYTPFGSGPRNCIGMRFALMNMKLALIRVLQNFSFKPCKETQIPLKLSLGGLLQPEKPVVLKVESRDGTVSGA

[31] = Saccharomyces cerevisiae, 48 h, pH 6.8

Compound `O=C(NCC(O)(Cn1cncn1)c1ccc(F)cc1F)c1ccc2cc(F)ccc2c1` (centres unmarked) [Compound 14, N-(2-(2,4-Difluorophenyl)-2-hydroxy-3-(1H-1,2,4-triazol-1-yl)propyl)-6-fluoro-2-naphthamide] has an MIC80 ([1]; strain Y2411 Endog. ScCYP51, SD pH 6.8, 30 °C, 48 h) of 0.015 ± 0.003 µM, an MIC ([1]; supplement csv, read-out: MIC (nM) S. cerevisiae Y2411) of 15 ± 3 nM and an MIC80 ([2]; 48 h, pH 6.8) of 0.048 ± 0.004 µM. It also gave an MIC ([2]; read-out: MIC (nM) S. cerevisiae Y2300) of 48 ± 4 nM, an MIC80 ([3]; 48 h, pH 6.8) of 0.326 ± 0.048 µM and an MIC ([3]; read-out: MIC (nM) S. cerevisiae Y2301) of 326 ± 48 nM. The MIC80 ([4]; 48 h, pH 6.8) was 0.632 ± 0.123 µM, the MIC ([4]; read-out: MIC (nM) S. cerevisiae Y2513) was 632 ± 123 nM and the MIC80 [5, 31] was 0.054 ± 0.021 µM. It also gave an MIC ([5]; read-out: MIC (nM) C. albicans model Y2459) of 54 ± 21 nM, an MIC80 [6, 31] of over 1 µM and an MIC ([6]; read-out: MIC (nM) C. albicans model Y525) of over 1000 nM. It also gave an MIC ([7]; Candida albicans, read-out: MIC (nM) C. albicans model Y570) of 33500 nM, an MIC80 [7, 31] of 33.5 µM and an MIC ([8]; SC5314, supplement csv) of 18 nM. It also gave an MIC80 ([8]; C. albicans clinical isolate Y71 SC5314, pH 7, 24 h) of 0.018 µM, an MIC80 [9] of 0.01 µM and an MIC80 [10] of 0.075 µM. It also gave an MIC80 [11] of 2.4 µM, an MIC80 ([12]; Saccharomyces cerevisiae) of 0.024 µM and an MIC ([12]; read-out: MIC (nM) C. parapsilosis model Y2721) of 24 nM. For the same compound, the “increase in resistance owing to the CpCYP51 Y132F mutation” value ([13]; MIC80 Y2716 versus Y2721) was over 19 fold, the MIC80 ([13]; Saccharomyces cerevisiae) was 1 µM and the MIC80 [14] was 0.047 ± 0.006 µM. For the same compound, the MIC ([14]; read-out: MIC (nM) C. glabrate model Y2374) was 47 ± 6 nM, the MIC80 [15] was 9.2 ± 0.707 µM and the MIC80 ([16]; Saccharomyces cerevisiae) was 0.005 µM. For the same compound, the MIC ([16]; read-out: MIC (nM) C. neoformans model Y2711) was 5 nM, the MIC ([17]; Rhizopus arrhizus, read-out: MIC (nM) R. arrhizus model Y2649) was 83 nM and the MIC80 ([17]; Saccharomyces cerevisiae) was 0.083 µM. It also gave an MIC80 [18] of 3.5 µM, an MIC80 [19] of over 15 µM and an MIC ([20]; Aspergillus fumigatus, read-out: MIC (nM) A. fumigatus model Y2747) of 300 nM. For the same compound, the MIC80 ([20]; Saccharomyces cerevisiae) was 0.3 µM, the “zone of growth inhibition (inhibitory activity in words)” value (“zone of growth inhibition” for short) [21] was “showed activity” and the “zone of growth inhibition” value [22] was “showed activity”. The “zone of growth inhibition” value [23] was “reduced effect” and the “zone of growth inhibition” value [24] was “no effect”.
For `O=C(Nc1ccc(CNC(=O)C(Cn2cncn2)c2ccc(F)cc2F)cc1)c1ccc(Cl)cc1` (centres unmarked) [Compound 44, 4-Chloro-N-(4-((2-(2,4-difluorophenyl)-3-(1H-1,2,4-triazol-1-yl)propanamido)methyl)phenyl)benzamide], the “zone of growth inhibition” value [25] was “strongly inhibited”, the “zone of growth inhibition” value [26] was “strongly inhibited” and the “zone of growth inhibition” value [21] was “reduced activity”. The “zone of growth inhibition” value [22] was “reduced activity”, the “zone of growth inhibition” value [23] was “retained some inhibitory activity” and the “zone of growth inhibition” value [24] was “not the CaCDR1B expressing strain”.
For `O=C(Nc1ccc(CNC(=O)C(Cn2cncn2)c2ccc(F)cc2F)cc1)c1cccnc1` (centres unmarked) [Compound 47, N-(4-((2-(2,4-Difluorophenyl)-3-(1H-1,2,4-triazol-1-yl)propanamido)methyl)phenyl)nicotinamide], the “zone of growth inhibition” value [25] was “poorly inhibited” and the “zone of growth inhibition” value [26] was “did not inhibit”.
For `OC(Cn1cncn1)(Cn1cncn1)c1ccc(F)cc1F` [FLC, fluconazole, reference compound], the IC50 [27] is listed as 0.335 ± 0.017 µM, the IC50 [28] is listed as 25.7 ± 3.55 µM and the IC50 [29] is listed as 0.606 ± 0.066 µM.
For `O[C@@](Cn1cnnn1)(c1ccc(F)cc1F)C(F)(F)c1ccc(-c2ccc(OCC(F)(F)F)cc2)cn1` [VT-1161, Oteseconazole], the IC50 [30] is given as 140 µM.
